Assay results taken from US20120288531A1, “PHARMACEUTICAL COMPOSITIONS FOR DELIVERY OF FERRIC IRON COMPOUNDS, AND METHODS OF USE THEREOF” (priority 2011, published 2012).

Tests used:
Blood hemoglobin = test: Repeated doses: effect on blood hemoglobin in normal SD rats; type: in vivo; details: ROA IJ (FAC) or PO (ferrous sulfate)
Protocol: Blood samples were collected pre-dosing (Day 1) and post-dosing (Day 22). Blood hemoglobin was evaluated using colorimetric assay.

[1] = Stability of ferric acetyl-hydroxamate complex in pre-hydrophilic fraction; details: pre-hydrophilic fraction of Table 1 (10% PVP-12 and 15% NaC8), 4 hours
[2] = one month at 25° and 40° C.

Molecule: ferrous sulfate
- Hb at Day 22 (Mean ± SE) (Blood hemoglobin; post-dosing, daily for 21 days (18 doses), 6.3 mg iron per dose): 13.9 ± 0.2 g/dL
- Hb at Day 1 (Mean ± SE) (Blood hemoglobin; pre-dosing, normal SD rats): 14.2 ± 0.2 g/dL

Molecule: CC(=O)N[O-].CC(=O)N[O-].CC(=O)N[O-].[Fe+3] [ferric acetyl-hydroxamate]
- precipitation and Fe2+ formation [1]: Neither precipitation nor Fe^2+ formation was observed
- stability in the pre-hydrophilic fraction [1]: stable for 4 hours

Molecule: O.O=C([O-])CN(CCN(CC(=O)[O-])CC(=O)[O-])CC(=O)[O-].[Fe+3].[Na+] [ferric sodium EDTA, ethylenediaminetetraacetic acid iron(III) sodium salt hydrate]
- stability in the oily suspension [2]: good stability
